Four molecules from paper PMC7835950 (Frontiers in Chemistry, 2021) can be followed below.

In the assay the target is T1, OADH (Rattus norvegicus, UniProt Q4KLP0).
T1 sequence (Q4KLP0 45-920 limits assumed): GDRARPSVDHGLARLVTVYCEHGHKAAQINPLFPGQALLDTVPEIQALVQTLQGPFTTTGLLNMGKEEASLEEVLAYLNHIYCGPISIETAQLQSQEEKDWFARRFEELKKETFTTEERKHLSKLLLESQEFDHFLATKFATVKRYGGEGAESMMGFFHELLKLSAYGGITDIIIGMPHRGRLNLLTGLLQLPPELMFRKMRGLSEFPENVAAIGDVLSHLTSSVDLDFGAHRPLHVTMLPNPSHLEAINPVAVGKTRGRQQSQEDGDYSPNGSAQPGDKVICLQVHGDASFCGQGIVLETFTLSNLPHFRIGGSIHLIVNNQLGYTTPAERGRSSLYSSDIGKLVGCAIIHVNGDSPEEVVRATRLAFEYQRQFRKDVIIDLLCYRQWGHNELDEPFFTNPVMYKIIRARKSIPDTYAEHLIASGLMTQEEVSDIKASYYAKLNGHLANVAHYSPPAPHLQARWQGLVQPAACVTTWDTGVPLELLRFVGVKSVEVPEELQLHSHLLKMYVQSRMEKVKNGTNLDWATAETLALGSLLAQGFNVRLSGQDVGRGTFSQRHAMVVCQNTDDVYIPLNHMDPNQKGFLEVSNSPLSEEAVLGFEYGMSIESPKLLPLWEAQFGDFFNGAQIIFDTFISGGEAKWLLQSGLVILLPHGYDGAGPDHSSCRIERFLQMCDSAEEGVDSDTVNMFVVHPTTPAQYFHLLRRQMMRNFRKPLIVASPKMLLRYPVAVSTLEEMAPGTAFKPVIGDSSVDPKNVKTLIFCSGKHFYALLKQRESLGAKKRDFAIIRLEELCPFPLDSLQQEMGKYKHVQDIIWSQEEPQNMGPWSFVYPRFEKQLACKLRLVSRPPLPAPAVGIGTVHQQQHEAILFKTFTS
The assay can be described thus: OADH reaction catalyzed by the enzyme preparation from rat liver, low [OA] (high-affinity OA sites). It counts as biochemical. The note with it: for Ki / Amax: OADH reaction, liver; for Amax: high-affinity sites. The procedure:
Enzymes catalyzing OGDH and OADH reactions were enriched from rat hearts and livers using polyethylene glycol precipitation, as previously described (Artiukhov et al., [2020]).
The enzyme activities were assayed in the medium (pH 7.0) containing 50 mM MOPS, 1 mM ThDP, 1 mM MgCl2, 1 mM CaCl2, 1 mM dithiothreitol 0.15 mM Coenzyme A, 0.25 mM NAD^+ and various concentrations of 2-oxo substrates (0–10 mM OG or OA) and their phosphonate analogs (0–5,000 μM SP, GP, or AP). Reactions were started by addition of the enzyme preparations to the assay media. The amount of enzyme preparations (0.074 mg protein for the preparation from liver and 0.023 mg protein for the preparation from heart) were chosen to induce the lowest reliably measured reaction rate (ΔA340 = 0.001/min) at 0.01 mM OA without the phosphonates.
Reaction rates were calculated from linear parts of the product accumulation curves (up to 10 min, dependent on the reaction rate), excluding the initial region, where mixing the reagents and solubilization of the preparation affected the optical density.
Non-linear regression was used to approximate the experimental dependences of the reaction rates on the OG or OA concentration according to the Michaelis-Menten equation ( a=Amax*[S]/Km+[S] ) or its sum ( a=Amax*[S]/Km+[S]+Amax,2*[S]/Km,2+[S] ). The former equation describes one type of the active sites. […] The assumption was based on the presence of the two enzymes, OGDH and OADH, in the employed preparations.
The kinetic data were also analyzed by linear regression, using the known methods of the linearization of the Michaelis-Menten equation in the Lineweaver-Burk ( 1/a=1/Amax(1+Km/[S]) ) and Eadie-Hofstee ( a=Amax−Kmv/[S] ) coordinates. Due to the several orders of magnitude difference in the values of Km,1 and Km,2, the linear regression required separate analysis of the dependencies in the intervals of the low and high concentrations of 2-oxoadipate. The Km and Amax values obtained in independent experiments using the non-linear and linear regression analyses of the experimental data, were averaged and presented as Mean ± Standard Error of Mean.
To determine the inhibition constants (Ki), the effective values of Kmeff and Amaxeff , calculated from the hyperbolic or linear approximations as described above, were plotted against the concentration of the inhibitors ([I]). The linear regression of the equation Kmeff/Amaxeff=Km/Amax(1+[I]/Ki) , (Cornish-Bowden, [1979]) was applied to find the Intercept (Km/Amax) and Slope (Km/(Amax*Ki)) of a dependence. The values of Ki were determined as the ratio of the corresponding Intercepts to the Slopes. In the two-site model, the Ki(1) and Ki(2) were calculated separately from the linear approximations of Km,1eff/Amax,1eff vs. [I] and Km,2eff/Amax,2eff vs. [I] dependences, respectively. The standard errors of Ki were determined from means and standard errors of the Intercepts and the Slopes, using the previously described formula for standard deviation of a fraction (Bunik et al., [1999]). The Ki values obtained from the non-linear and linear regression analyses of the experimental data were averaged and presented as Mean ± Standard Error of Mean.

The mark [1] stands for this setting: low [OA] 0–0.05 mM, Michaelis-Menten, read-out: Ki, MM.
Setting [2] is: low [OA], Eadie-Hofstee, read-out: Ki, EH.
Where [3] appears, read: low [OA], Lineweaver-Burk, read-out: Ki, LB.
The mark [4] stands for this setting: low [OA], average, read-out: Ki, Average.

The Ki is a dissociation constant, usually derived from enzyme kinetics or from competition with a known ligand.

Values joined by “and” are separate entries in the source; they are usually repeats but may differ in a detail not shown here. Equal values may be shown once. Read-outs that look alike come from different tables or passages of the source.

For `O=C(O)CCCC(=O)P(=O)(O)O` [GP, glutaryl phosphonate], the Ki runs as follows: under setting [1], 2400 ± 300 nM; under setting [2], 1900 ± 300 nM; under setting [3], 1600 ± 200 nM; under setting [4], 2000 ± 200 nM. The Amax was 0.0026 ± 0.0002 µmol/min per mg of protein ([I] 2 µM); 0.0018 ± 0.0001 µmol/min per mg of protein ([I] 10 µM); 0.0011 ± 0.00005 µmol/min per mg of protein ([I] 50 µM); 0.0016 ± 0.0001 µmol/min per mg of protein ([I] 200 µM); 0.0013 ± 0.0001 µmol/min per mg of protein ([I] 1000 µM).
On to `O=C(O)CCCCC(=O)P(=O)(O)O` [AP, adipoyl phosphonate], for which the Ki was 50 nM and 44 nM under setting [1]; 44 ± 111 nM under setting [2]; 56 ± 118 nM under setting [3]; 48 ± 4 nM under setting [4]. The Amax is recorded as 0.0014 ± 0.0001 µmol/min per mg of protein ([I] 0.5 µM), 0.0056 ± 0.0022 µmol/min per mg of protein ([I] 2 µM) and 0.0088 ± 0.0041 µmol/min per mg of protein ([I] 10 µM).
Turning to `O=C(O)CCC(=O)P(=O)(O)O` [SP, succinyl phosphonate], the inhibition constant Ki is, setting by setting: under setting [1], 128000 ± 9000 nM; under setting [2], 110000 ± 7000 nM; under setting [3], 109000 ± 9000 nM; under setting [4], 116000 ± 6000 nM. In addition, the Amax is given as 0.0017 ± 0.0001 µmol/min per mg of protein ([I] 10 µM); 0.0016 ± 0.0001 µmol/min per mg of protein ([I] 50 µM); 0.0016 ± 0.00005 µmol/min per mg of protein ([I] 200 µM); 0.0014 ± 0.0001 µmol/min per mg of protein ([I] 1000 µM); 0.0010 ± 0.00003 µmol/min per mg of protein ([I] 5000 µM).
Consider `O=C(O)CCCC(=O)C(=O)O` [OA, 2-oxoadipate], for which the “difference in the affinities of the two types of the sites to OA” value (hepatic preparation, low- vs high-affinity sites) came out at 60 fold.
